{"source": "ChEMBL document CHEMBL1201862", "about": "“PubChem BioAssay data set” (2004)", "key": {"[1]": {"biological_target": "T1, Leucine aminopeptidase (Plasmodium falciparum 3D7, UniProt Q8IL11)", "T1 sequence (Q8IL11 whole entry)": "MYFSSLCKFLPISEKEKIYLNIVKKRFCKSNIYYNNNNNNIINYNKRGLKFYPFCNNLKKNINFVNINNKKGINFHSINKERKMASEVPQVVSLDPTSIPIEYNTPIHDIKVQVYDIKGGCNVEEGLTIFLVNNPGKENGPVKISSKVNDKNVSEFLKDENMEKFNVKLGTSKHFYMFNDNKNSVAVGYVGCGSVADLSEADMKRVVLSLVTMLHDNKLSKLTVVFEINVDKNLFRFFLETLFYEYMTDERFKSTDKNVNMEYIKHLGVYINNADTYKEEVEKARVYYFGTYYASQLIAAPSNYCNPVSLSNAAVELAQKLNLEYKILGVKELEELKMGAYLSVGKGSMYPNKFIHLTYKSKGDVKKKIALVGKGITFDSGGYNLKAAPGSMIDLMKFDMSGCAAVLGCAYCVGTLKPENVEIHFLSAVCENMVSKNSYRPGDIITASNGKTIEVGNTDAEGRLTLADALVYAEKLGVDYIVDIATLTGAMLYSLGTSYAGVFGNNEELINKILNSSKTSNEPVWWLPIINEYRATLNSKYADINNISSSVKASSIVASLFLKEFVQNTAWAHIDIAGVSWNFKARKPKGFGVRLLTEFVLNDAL", "assay": "P. falciparum M17LAP inhibitors, primary screen, biochemical, fluorogenic H-Leu-NHMec substrate, 1536-well (AID 1619)", "format": "functional"}, "[2]": {"biological_target": "T2, Replicative DNA helicase DnaB (Mycobacterium tuberculosis, UniProt P9WMR3)", "T2 sequence (P9WMR3 whole entry)": "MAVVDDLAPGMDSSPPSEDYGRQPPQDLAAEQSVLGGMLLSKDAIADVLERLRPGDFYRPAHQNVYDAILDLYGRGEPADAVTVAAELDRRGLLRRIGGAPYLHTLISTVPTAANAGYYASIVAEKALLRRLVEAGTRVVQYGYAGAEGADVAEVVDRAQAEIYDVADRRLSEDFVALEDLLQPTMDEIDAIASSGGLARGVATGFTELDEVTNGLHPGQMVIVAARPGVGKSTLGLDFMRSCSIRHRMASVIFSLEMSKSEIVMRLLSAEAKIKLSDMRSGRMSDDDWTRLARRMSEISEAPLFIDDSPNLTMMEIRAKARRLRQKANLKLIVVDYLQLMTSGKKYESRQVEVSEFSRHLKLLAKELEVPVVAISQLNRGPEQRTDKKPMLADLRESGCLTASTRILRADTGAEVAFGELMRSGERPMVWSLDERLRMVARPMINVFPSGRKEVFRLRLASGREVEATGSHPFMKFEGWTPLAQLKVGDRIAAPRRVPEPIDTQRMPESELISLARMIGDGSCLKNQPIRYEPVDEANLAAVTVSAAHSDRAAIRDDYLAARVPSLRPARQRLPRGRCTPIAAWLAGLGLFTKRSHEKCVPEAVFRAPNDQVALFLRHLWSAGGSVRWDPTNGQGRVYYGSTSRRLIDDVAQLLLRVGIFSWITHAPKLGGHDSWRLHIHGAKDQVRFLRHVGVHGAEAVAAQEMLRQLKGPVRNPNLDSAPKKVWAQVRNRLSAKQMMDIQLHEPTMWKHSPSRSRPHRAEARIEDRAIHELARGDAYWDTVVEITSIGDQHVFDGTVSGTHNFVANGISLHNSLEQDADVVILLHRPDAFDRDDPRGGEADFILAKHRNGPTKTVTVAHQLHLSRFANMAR", "assay": "DnaB intein splicing inhibitors, dose response, biochemical, cell-free fluorescence (AID 449749)", "format": "functional"}, "[3]": {"biological_target": "T3, Protein RecA (Mycobacterium tuberculosis, UniProt P9WHJ3)", "T3 sequence (P9WHJ3 whole entry)": "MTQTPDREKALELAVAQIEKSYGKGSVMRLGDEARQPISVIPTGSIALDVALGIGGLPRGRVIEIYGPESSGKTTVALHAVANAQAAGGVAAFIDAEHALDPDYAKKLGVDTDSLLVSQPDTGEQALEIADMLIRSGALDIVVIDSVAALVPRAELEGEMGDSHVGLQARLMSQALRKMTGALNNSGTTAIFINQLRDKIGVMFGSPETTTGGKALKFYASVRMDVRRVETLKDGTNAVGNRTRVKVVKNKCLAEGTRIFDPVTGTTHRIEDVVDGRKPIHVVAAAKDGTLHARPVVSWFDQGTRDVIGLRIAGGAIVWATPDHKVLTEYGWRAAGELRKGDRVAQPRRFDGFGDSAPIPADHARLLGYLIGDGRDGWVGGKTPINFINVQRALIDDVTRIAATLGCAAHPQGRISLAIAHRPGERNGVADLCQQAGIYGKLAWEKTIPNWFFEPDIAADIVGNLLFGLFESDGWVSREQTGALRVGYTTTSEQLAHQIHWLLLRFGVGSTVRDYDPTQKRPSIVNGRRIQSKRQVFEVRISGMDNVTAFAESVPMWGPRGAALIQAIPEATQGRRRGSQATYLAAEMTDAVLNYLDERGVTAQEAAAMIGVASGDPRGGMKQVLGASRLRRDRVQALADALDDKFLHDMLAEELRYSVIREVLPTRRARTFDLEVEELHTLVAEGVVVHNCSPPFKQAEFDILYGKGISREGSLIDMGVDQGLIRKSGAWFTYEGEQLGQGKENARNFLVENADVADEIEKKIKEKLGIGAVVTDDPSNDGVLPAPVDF", "assay": "Fluorescence Cell-Free Homogeneous Dose Retest to Identify Inhibitors of RecA-Intein Splicing Activity. [Related pubchem assays (depositor defined):AID2097, AID2223, AID489010, AID492950]", "format": "functional"}, "[4]": {"biological_target": "T4, Aminopeptidase N (Plasmodium falciparum FcB1/Columbia, UniProt O96935)", "T4 sequence (O96935 whole entry)": "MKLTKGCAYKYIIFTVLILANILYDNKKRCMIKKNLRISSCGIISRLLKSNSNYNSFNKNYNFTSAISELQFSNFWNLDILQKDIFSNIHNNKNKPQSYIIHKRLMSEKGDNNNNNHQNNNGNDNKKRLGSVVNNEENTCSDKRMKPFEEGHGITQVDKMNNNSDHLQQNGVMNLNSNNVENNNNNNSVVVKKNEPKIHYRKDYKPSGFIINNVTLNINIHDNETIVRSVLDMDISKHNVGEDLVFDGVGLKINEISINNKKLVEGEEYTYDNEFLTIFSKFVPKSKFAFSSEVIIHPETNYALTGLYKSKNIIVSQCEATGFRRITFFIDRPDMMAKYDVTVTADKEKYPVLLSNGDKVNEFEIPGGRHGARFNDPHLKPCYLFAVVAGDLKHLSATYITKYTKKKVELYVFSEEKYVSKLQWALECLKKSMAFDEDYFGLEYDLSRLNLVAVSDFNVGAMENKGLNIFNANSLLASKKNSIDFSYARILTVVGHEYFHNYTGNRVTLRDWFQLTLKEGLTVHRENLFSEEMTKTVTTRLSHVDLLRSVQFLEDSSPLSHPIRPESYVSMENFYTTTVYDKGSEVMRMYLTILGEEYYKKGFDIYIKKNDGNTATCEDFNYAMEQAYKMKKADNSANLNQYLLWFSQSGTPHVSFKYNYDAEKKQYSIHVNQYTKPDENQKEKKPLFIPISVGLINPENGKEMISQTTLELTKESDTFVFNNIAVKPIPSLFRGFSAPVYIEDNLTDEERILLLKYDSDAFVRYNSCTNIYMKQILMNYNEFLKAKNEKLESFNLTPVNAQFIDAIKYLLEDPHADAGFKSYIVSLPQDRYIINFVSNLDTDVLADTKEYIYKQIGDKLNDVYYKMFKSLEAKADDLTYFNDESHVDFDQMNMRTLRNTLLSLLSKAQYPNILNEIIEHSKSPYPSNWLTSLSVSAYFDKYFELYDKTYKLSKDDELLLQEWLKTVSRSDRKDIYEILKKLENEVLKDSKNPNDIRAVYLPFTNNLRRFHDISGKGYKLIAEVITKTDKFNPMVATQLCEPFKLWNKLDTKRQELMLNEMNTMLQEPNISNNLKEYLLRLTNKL", "assay": "malaria alanyl aminopeptidase activity blockers – biochemical, fluorogenic H-Leu-NHMec substrate, 1536-well (AID 1445)", "parameters": "species or system Plasmodium falciparum 3D7, 3D7"}, "[5]": {"assay": "microbe, parasite or virus in culture", "format": "functional", "details": "Mycobacterium tuberculosis"}, "[6]": {"biological_target": "Induced myeloid leukemia cell differentiation protein Mcl-1 (Homo sapiens, UniProt Q07820)", "sequence (Q07820 whole entry)": "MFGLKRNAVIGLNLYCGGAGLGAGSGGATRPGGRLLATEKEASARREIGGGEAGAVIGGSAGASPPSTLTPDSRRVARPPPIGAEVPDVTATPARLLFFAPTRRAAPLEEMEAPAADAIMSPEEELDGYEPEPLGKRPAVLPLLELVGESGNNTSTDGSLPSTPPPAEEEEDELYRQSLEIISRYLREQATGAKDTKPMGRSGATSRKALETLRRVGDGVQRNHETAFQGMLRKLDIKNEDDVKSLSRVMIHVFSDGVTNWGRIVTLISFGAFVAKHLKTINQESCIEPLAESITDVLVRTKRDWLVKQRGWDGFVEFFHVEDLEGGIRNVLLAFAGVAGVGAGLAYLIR", "format": "functional"}, "[7]": {"assay": "luciferase reporter signal suppression in cells – H4 neuroglioma cells, luminescence, dose response (AID 1990)", "format": "functional, cell-based"}, "[8]": {"tested_on": "Streptococcus sp. 'group A'", "assay": "Streptococcus pyogenes SK(-)GAS viability under kanamycin – luminescence, BacTiterGlo, confirmation, counter-screen for streptokinase expression inhibitor project, dose response (AID 1900)", "format": "functional, organism-based"}, "[9]": {"assay": "Luminescence Cell-Based Dose Response HTS to Identify Inhibitors of 5'UTR Stem-Loop Driven Prion Protein mRNA Translation in H4 Neuroglioblastoma Cells. [Related pubchem assays: 1827 (Project Summary), 1813 (Primary HTS)]", "format": "functional"}, "[10]": {"assay": "alpha-synuclein stem-loop luciferase translation blockers – H4 neuroglioma cells, luminescence, confirmation (AID 1988)", "format": "functional, cell-based"}, "[11]": {"biological_target": "T5, Streptokinase A (Streptococcus pyogenes serotype M1, UniProt P10520)", "T5 sequence (P10520 whole entry)": "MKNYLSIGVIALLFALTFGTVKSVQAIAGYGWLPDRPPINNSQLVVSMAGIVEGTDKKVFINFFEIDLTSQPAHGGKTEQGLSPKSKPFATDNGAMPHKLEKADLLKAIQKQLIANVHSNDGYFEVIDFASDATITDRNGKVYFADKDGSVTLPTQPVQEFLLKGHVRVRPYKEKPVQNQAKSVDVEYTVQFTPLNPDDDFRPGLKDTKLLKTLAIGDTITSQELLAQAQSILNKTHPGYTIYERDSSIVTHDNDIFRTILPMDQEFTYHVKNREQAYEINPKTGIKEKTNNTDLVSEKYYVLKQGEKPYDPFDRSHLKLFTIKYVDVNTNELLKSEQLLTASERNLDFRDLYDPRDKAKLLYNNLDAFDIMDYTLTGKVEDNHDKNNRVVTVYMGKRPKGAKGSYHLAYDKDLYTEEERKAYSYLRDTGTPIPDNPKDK", "assay": "viability-normalized secreted streptokinase activity reduction – plasminogen activation absorbance, OD405, dose response (AID 1914)", "format": "functional, Streptococcus pyogenes M1 GAS"}, "[12]": {"assay": "viability of PTEN-deleted HCT116 cells – cell-based, HCT116 PTEN knockout, dose response (AID 1047);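 also: HCT116 colon tumor cells with PTEN knocked out; cells exposed to compound for 60 hours before readout; potency for loss of cell viability measured by luminescence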", "format": "functional"}, "[13]": {"assay": "viability of HCT116 lacking mutant beta-catenin – cell-based, human colon tumor, dose response (AID 1045);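 also: HCT116 colon tumor cells with beta catenin knocked out; cells exposed to compound for 60 hours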", "format": "functional"}, "[14]": {"tested_on": "Streptococcus", "assay": "GAS UMAA2166 growth inhibition – luminescence, BacTiterGlo, counter-screen for streptokinase expression inhibitor project, dose response (AID 1915);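 also: potency for reduction of bacterial viability or growth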", "format": "functional, organism-based"}, "[15]": {"tested_on": "INS1", "assay": "INS-1E survival protection against cytokine death – cell-based, luminescence, retest, dose response (AID 449756);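 also: cell death triggered by IL-1 beta plus TNF-alpha plus IFN-gamma mixture; protective hits raise ATP signal compared with cytokine alone wells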", "format": "functional", "details": "Rattus norvegicus"}, "[16]": {"assay": "reduction of Shn3 3'UTR-driven luciferase in osteoblasts – cell-based, Clone20 osteoblasts, firefly luciferase, cherry-picked, dose response (AID 624132)", "format": "functional"}, "[17]": {"assay": "loss of viability in HepG2 cells – cell-based, CellTiter-Glo, cherry-picked, cytotoxicity control for Shn3 inhibitor project, dose response (AID 624134)", "format": "functional"}, "[18]": {"assay": "non-specific 3'UTR reporter inhibition in Clone20-Shn3RL – cell-based, Renilla luciferase, cherry-picked, counter-screen for Shn3 inhibitor project, dose response (AID 624133)", "format": "functional"}, "[19]": {"biological_target": "Paired box protein Pax-8 (Homo sapiens, UniProt Q06710)", "sequence (Q06710 whole entry)": "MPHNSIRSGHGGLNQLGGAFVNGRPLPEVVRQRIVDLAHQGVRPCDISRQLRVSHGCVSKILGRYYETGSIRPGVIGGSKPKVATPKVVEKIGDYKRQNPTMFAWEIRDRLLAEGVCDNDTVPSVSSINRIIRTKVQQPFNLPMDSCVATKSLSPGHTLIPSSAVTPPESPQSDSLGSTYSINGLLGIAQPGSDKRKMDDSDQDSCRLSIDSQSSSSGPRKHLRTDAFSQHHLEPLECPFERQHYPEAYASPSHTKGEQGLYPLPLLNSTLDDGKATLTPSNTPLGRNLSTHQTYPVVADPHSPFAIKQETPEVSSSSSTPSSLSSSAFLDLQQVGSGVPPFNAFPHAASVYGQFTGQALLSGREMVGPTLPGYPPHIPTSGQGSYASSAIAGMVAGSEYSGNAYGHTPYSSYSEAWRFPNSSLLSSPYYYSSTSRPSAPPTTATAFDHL", "assay": "PAX8 transcriptional activity inhibition in RMG-I – RMG-I cells, luciferase, cherry-pick, dose response (AID 687027);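 also: luciferase reporter driven by Pax8 target thyroperoxidase promoter measured by SteadyGlo luminescence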", "format": "functional, cell-based"}}, "note": "Calls of active or inactive are those of the source."}
{"smiles": "CCCCc1ccc(NC(=O)CSCc2cc(=O)[nH][nH]2)cc1", "values": [{"measurement": "IC50", "setting": "[1]", "value": "12.4 µM (active)"}, {"measurement": "AC50", "setting": "[2]", "value": "3.57 µM (active)"}, {"measurement": "EC50", "setting": "[3]", "value": "1.82 µM (active)"}]}
{"smiles": "COC(=O)c1ccc(Cl)c(NS(=O)(=O)c2ccc3c(c2)OCCO3)c1", "values": [{"measurement": "IC50", "setting": "[4]", "value": "29.7 µM (active)"}]}
{"smiles": "Nc1c(C(=O)O)cnc2c(-c3ccc(Cl)cc3)cnn12", "values": [{"measurement": "IC50", "setting": "[4]", "value": "42.4 µM (active)"}, {"measurement": "CC50", "setting": "[5]", "value": "24.6 µM (active)"}]}
{"smiles": "COc1ccc(CCNC(=O)COC(=O)Cc2cccc3ccccc23)cc1", "values": [{"measurement": "IC50", "setting": "[6]", "value": "26.3 µM (not active)"}]}
{"smiles": "O=C(Nc1ccc([N+](=O)[O-])cc1)Nc1nc(-c2ccc(Cl)s2)cs1", "values": [{"measurement": "EC50", "setting": "[7]", "value": "8.65 µM (active)"}, {"measurement": "EC50", "setting": "[8]", "value": "6.16 µM (active)"}, {"measurement": "EC50", "setting": "[9]", "value": "8.31 µM (active)"}, {"measurement": "EC50", "setting": "[10]", "value": "8.39 µM (active)"}, {"measurement": "EC50", "setting": "[11]", "value": "44.8 µM (inconclusive)"}, {"measurement": "EC50", "setting": "[12]", "value": "0.8 µM (active)"}, {"measurement": "EC50", "setting": "[13]", "value": "0.991 µM (active)"}, {"measurement": "IC50", "setting": "[6]", "value": "5.32 µM (active)"}, {"measurement": "EC50", "setting": "[14]", "value": "81.8 µM (active)"}, {"measurement": "AC50", "setting": "[15]", "value": "1.54 µM (active)"}, {"measurement": "AC50", "setting": "[16]", "value": "3.19 µM (active)"}, {"measurement": "AC50", "setting": "[17]", "value": "4.82 µM (active)"}, {"measurement": "AC50", "setting": "[18]", "value": "3.04 µM (active)"}, {"measurement": "AC50", "setting": "[19]", "value": "2.42 µM (active)"}]}
